Measurements published in the NIST ThermoML archive (doi:10.1021/je200833s).
± gives the expanded uncertainty stated by the source.

Experiment: molar enthalpy of vaporization or sublimation
Details: 298.15 K; Crystal; Calvet

Row | SMILES | molar enthalpy [kcal/mol]
1 | Oc1ccccc1I [2-iodophenol] | 18.2 ± 0.669
2 | Oc1ccc(I)cc1 [4-iodophenol] | 21.2 ± 0.717
3 | Oc1cccc(I)c1 [m-iodophenol] | 21.1 ± 0.765
